Experiment [1] addresses Human immunodeficiency virus type 1 reverse transcriptase (Human immunodeficiency virus 1) (UniProt Q72547). The experiment in a line: (§1) Inhibition of DNA dependent DNA polymerase activity of HIV1 BH10 recombinant reverse transcriptase p66/p51 assessed as residual enzyme activity.
In experiment [2] the target is T1, Human immunodeficiency virus type 1 reverse transcriptase (Human immunodeficiency virus 1, UniProt Q72547). Described as §1.
In experiment [3] the target is Human immunodeficiency virus type 1 reverse transcriptase (Human immunodeficiency virus 1) (UniProt Q72547). Description: (§2) Inhibition of RNA dependent DNA polymerase activity of HIV1 BH10 recombinant reverse transcriptase p66/p51 assessed as residual enzyme activity by poly(rA)n.oligo(dT)12-18-directed incorporation of [3H]dTTP.
Experiment [4] addresses T1, Human immunodeficiency virus type 1 reverse transcriptase. The experiment is described as §2.
Experiment [5] has the same target. The experiment in a line: Inhibition of RNase H activity of HIV1 BH10 recombinant reverse transcriptase p66/p51 assessed as residual enzyme activity […].

Bounds are passed on as bounds.

With `CC1=C(Cc2cc(O)ccc2O)[C@]2(C)CCC[C@@](C)(CC[C@@]3(O)[C@H](C)CC[C@@H]4OC(C)(C)CCC[C@@]43C)[C@H]2CC1`, the figures for the Inhibition in experiment [1] and in experiment [3] were 14.7 µM and 18.1 µM, respectively. Besides, the figures for the IC50 in experiment [2], in experiment [4] and in experiment [5] were 1.4 µM, 2.5 µM and more than 250 µM, respectively.

Take `C[C@@H]1CC=C2[C@@H](CCC[C@@]2(C)CC[C@@]2(C)C3=CCCC(C)(C)[C@H]3CC[C@@H]2C)[C@]1(C)Cc1cc(O)ccc1O`: the values for the Inhibition in experiment [1] and in experiment [3] were 44.4 µM and 11.1 µM, respectively. Moreover, the IC50 (usually the concentration needed to halve the response being measured) in experiment [2] is 4.2 µM; in experiment [4] it was 2.8 µM; in experiment [5] it was more than 250 µM.

In the case of `CC1(C)CCC[C@]2(C)OC3CC[C@](C)(C4CC[C@]5(C)C4CC[C@]4(C)C6=C(CC54)C(=O)C=CC6=O)[C@]3(C)CCC12` (stereo not given in full), the Inhibition stood at 54.5 µM in experiment [1] and 28.6 µM in experiment [3]. In addition, the IC50 was 4.5 µM in experiment [2], 13.2 µM in experiment [4] and more than 250 µM in experiment [5].

With `CC(=O)CC[C@@H]1[C@](C)(CC[C@@]2(O)[C@H](C)CC[C@@H]3OC(C)(C)CCC[C@@]32C)CCC[C@@]1(C)C(=O)Cc1cc(OS(=O)(=O)O)ccc1OS(=O)(=O)O` [SHAAGROCKOL B], the Inhibition was 40 µM in experiment [1] and 21.2 µM in experiment [3]. Besides, the values for the half-inhibitory concentration (IC50) in experiment [2], in experiment [4] and in experiment [5] were 6.7 µM, 8.5 µM and more than 250 µM, respectively.

As for `CC1=C(Cc2cc(OS(=O)(=O)O)ccc2OS(=O)(=O)O)[C@]2(C)CCC[C@@](C)(CC[C@@]3(O)[C@H](C)CC[C@@H]4OC(C)(C)CCC[C@@]43C)[C@H]2CC1` [SHAAGROCKOL C], the Inhibition came out at 5 µM in experiment [1] and 9.3 µM in experiment [3]. In addition, the concentration for half-maximal inhibition (IC50) in experiment [2] is 0.8 µM; in experiment [4] it was 3.3 µM; in experiment [5], more than 250 µM.

For `CC1(C)CCC[C@]2(C)OC3CC[C@](C)(C4CC[C@]5(C)C4CC[C@]4(C)c6c(OS(=O)(=O)O)ccc(OS(=O)(=O)O)c6CC54)[C@]3(C)CCC12` (stereo not given in full) [TOXICOL A], the figures for the Inhibition in experiment [1] and in experiment [3] were 5.2 µM and 6.5 µM, respectively. The values for the IC50 in experiment [2], in experiment [4] and in experiment [5] were 2.7 µM, 3.1 µM and more than 250 µM, respectively.

In the case of `CC1(C)CCC[C@]2(C)OC3CC[C@](C)(C4CC[C@]5(C)C4CC[C@]4(C)c6c(O)ccc(O)c6CC54)[C@]3(C)CCC12` (stereo not given in full) [TOXICOL B], the Inhibition was found to be 56.2 µM in experiment [1] and 11.1 µM in experiment [3]. Moreover, the values for the half-maximal inhibitory concentration (IC50) in experiment [2], in experiment [4] and in experiment [5] were 8.2 µM, 3.7 µM and more than 250 µM, respectively.

In the case of `C[C@@H]1CC=C2[C@@H](CCC[C@@]2(C)CC[C@@]2(C)C3=CCCC(C)(C)[C@H]3CC[C@@H]2C)[C@]1(C)Cc1cc(OS(=O)(=O)O)ccc1OS(=O)(=O)O` [TOXIUSOL SODIUM], the Inhibition in experiment [1] was found to be 41.6 µM; in experiment [3] it was 4.6 µM. Also, the IC50 was 6.6 µM in experiment [2], 1.5 µM in experiment [4] and more than 250 µM in experiment [5].

These data come from ChEMBL document CHEMBL1148032, “Hexaprenoid hydroquinones, novel inhibitors of the reverse transcriptase of human immunodeficiency virus type 1” (J Nat Prod, 1993).
